The text below walks through data of patent US7109323B2, “Formulation of boronic acid compounds” (The United States of America as represented by the …, priority 2001, dated 2006).

SMILES strings stand for the structures. Bounds are passed on as bounds.

What all share (assay type): physicochemical
Data set [1] in a line: storage stability determined by HPLC analysis. Here is the method: The product was obtained as a white amorphous powder. The product was stable for more than 2 years when stored at −20° C., as determined by HPLC analysis (purity >97%). When stored at 2-8° C., the product was not stable for longer than 3-6 months.
When stored at 2-8° C., the liquid formulation was not stable for longer than 6 months, as determined by HPLC analysis.
The lyophilized product was prepared according to Example 1 and stored at 5° C., ambient temperature, 37° C., and 50° C. Stability was monitored for approximately 18 months by periodically reconstituting a sample and analyzing the entire contents of the bottle by HPLC.
(§1) The lyophilized product was prepared according to Example 1, and samples (2.5 mg/vial) were reconstituted with 2.5 mL of 0.9% w/v sterile saline. […] No special care was taken to protect the solution from light.

Data set [2] in a line: reconstitution / dissolution of the formulation in aqueous solvents. As to conditions: 0.9% w/v saline, saline or isotonic, thermodynamic from solid; read-out: solubility (concentration dissolved). Here is the method: One sample was reconstituted with 2 mL of water. Dissolution was complete within 1-2 minutes of shaking. The entire solution was transferred to a volumetric flask, diluted, and analyzed by HPLC for content of N-(2-pyrazine)carbonyl-L-phenylalanine-L-leucine boronic acid. The total drug content was 1.09 mg. A second sample was reconstituted with 1 mL of propylene glycol:EtOH:H2O, 40:10:50. Dissolution was complete with 1 minute of shaking. The total drug content was 1.11 mg.
The lyophilized formulation was also reconstituted with 0.9% w/v saline. The lyophilized material dissolved readily at concentrations up to 6 mg/mL.
as §1

A short description of data set [3]: dynamic vapor sorption studies. As to conditions: crystalline product.

For `CC(C)C[C@H](NC(=O)[C@H](Cc1ccccc1)NC(=O)c1cnccn1)B(O)O` [N-(2-pyrazine)carbonyl-L-phenylalanine-L-leucine boronic acid], the “time stable on storage” value was 3-6 months in data set [1] (stored at 2-8° C., HPLC analysis) and “more than 2 years” in data set [1] (stored at −20° C., HPLC analysis (purity >97%)). In addition, in data set [2], the solubility was below 1000 µg/mL.

As to `CC(C)C[C@H](NC(=O)[C@H](Cc1ccccc1)NC(=O)c1cnccn1)B1OB([C@H](CC(C)C)NC(=O)[C@H](Cc2ccccc2)NC(=O)c2cnccn2)OB([C@H](CC(C)C)NC(=O)[C@H](Cc2ccccc2)NC(=O)c2cnccn2)O1` [N-(2-pyrazine)carbonyl-L-phenylalanine-L-leucine boroxine], in data set [3], the hygroscopicity entry was “non-hygroscopic”.
